Data published in ChEMBL document CHEMBL3045279, “Chiral Synthesis of Pefurazoate Enantiomers and Their Antifungal Activity to Gibberella fujikuroi” (1992).
Values after ≈ are worked out from the molar mass of the structure shown.

Key:
Format in all cases: functional
Fusarium fujikuroi [1] = assay: Antifungal activity against Fusarium fujikuroi assessed as mycelial growth inhibition at 1.25 ppm after 4 days relative to control; conditions: 96 h, read-out: GI
Fusarium fujikuroi [2] = assay: Inhibition of ergosterol biosynthesis in Fusarium fujikuroi assessed as decrease in ergosterol level in total lipids measuring [2-14C]-sodium acetate incorporation at 0.24 ppm after 2 hr by liquid scintillation counting analysis (reference value: 6 to 12.3%)
Fusarium fujikuroi [3] = assay: Antifungal activity against Fusarium fujikuroi assessed as mycelial growth inhibition at 0.31 ppm after 4 days relative to control; conditions: 96 h, read-out: GI
Fusarium fujikuroi [4] = assay: Inhibition of ergosterol biosynthesis in Fusarium fujikuroi assessed as [2-14C]-sodium acetate incorporation at 0.24 ppm after 2 hr by liquid scintillation counting analysis relative to control
Fusarium fujikuroi [5] = assay: Antifungal activity against Fusarium fujikuroi assessed as mycelial growth inhibition at 0.63 ppm after 4 days relative to control; conditions: 96 h, read-out: GI
Fusarium fujikuroi [6] = assay: Inhibition of ergosterol biosynthesis in Fusarium fujikuroi assessed as increase in 24-methylenedihydrolanosterol level in total lipids measuring [2-14C]-sodium acetate incorporation at 0.24 ppm after 2 hr by liquid scintillation counting analysis (reference value: 4.8 to 7.4%)
Fusarium fujikuroi [7] = assay: Antifungal activity against Fusarium fujikuroi assessed as mycelial growth inhibition after 4 days; conditions: 96 h; for EC50: read-out: ED50 (the source's name)
Fusarium fujikuroi [8] = assay: Antifungal activity against Fusarium fujikuroi assessed as mycelial growth inhibition at 2.5 ppm after 4 days relative to control; conditions: 96 h, read-out: GI
Fusarium fujikuroi [9] = assay: Antifungal activity against Fusarium fujikuroi assessed as mycelial growth inhibition at 0.15 ppm after 4 days relative to control; conditions: 96 h, read-out: GI
Fusarium fujikuroi [10] = assay: Antifungal activity against Fusarium fujikuroi assessed as mycelial growth inhibition at 5 ppm after 4 days relative to control; conditions: 96 h, read-out: GI
Fusarium fujikuroi [11] = assay: Inhibition of ergosterol biosynthesis in Fusarium fujikuroi assessed as decrease in ergosterol level in total lipids measuring [2-14C]-sodium acetate incorporation at 7.35 ppm after 2 hr by liquid scintillation counting analysis (reference value: 6 to 12.3%)
Fusarium fujikuroi [12] = assay: Antifungal activity against Fusarium fujikuroi assessed as mycelial growth inhibition at 20 ppm after 4 days relative to control; conditions: 96 h, read-out: GI
Fusarium fujikuroi [13] = assay: Inhibition of ergosterol biosynthesis in Fusarium fujikuroi assessed as increase in 24-methylenedihydrolanosterol level in total lipids measuring [2-14C]-sodium acetate incorporation at 7.35 ppm after 2 hr by liquid scintillation counting analysis (reference value: 4.8 to 7.4%)
Fusarium fujikuroi [14] = assay: Antifungal activity against Fusarium fujikuroi assessed as mycelial growth inhibition at 10 ppm after 4 days relative to control; conditions: 96 h, read-out: GI
Fusarium fujikuroi [15] = assay: Antifungal activity against Fusarium fujikuroi assessed as mycelial growth inhibition at 40 ppm after 4 days relative to control; conditions: 96 h, read-out: GI
Fusarium fujikuroi [16] = assay: Inhibition of ergosterol biosynthesis in Fusarium fujikuroi assessed as [2-14C]-sodium acetate incorporation at 7.35 ppm after 2 hr by liquid scintillation counting analysis relative to control

SMILES	inhibition of growth at 1.25 ppm (Fusarium fujikuroi [1])	inhibition at 0.24 ppm (Fusarium fujikuroi [2])	inhibition of growth at 0.31 ppm (Fusarium fujikuroi [3])	inhibition at 0.24 ppm (Fusarium fujikuroi [4])	inhibition of growth at 0.63 ppm (Fusarium fujikuroi [5])	inhibition at 0.24 ppm (Fusarium fujikuroi [6])	MIC (Fusarium fujikuroi [7])	EC50 (Fusarium fujikuroi [7])	inhibition of growth at 2.5 ppm (Fusarium fujikuroi [8])	inhibition of growth at 0.15 ppm (Fusarium fujikuroi [9])	inhibition of growth at 5 ppm (Fusarium fujikuroi [10])	inhibition at 7.35 ppm (Fusarium fujikuroi [11])	inhibition of growth at 20 ppm (Fusarium fujikuroi [12])	inhibition at 7.35 ppm (Fusarium fujikuroi [13])	inhibition of growth at 10 ppm (Fusarium fujikuroi [14])	inhibition of growth at 40 ppm (Fusarium fujikuroi [15])	inhibition at 7.35 ppm (Fusarium fujikuroi [16])
C=CCCCOC(=O)[C@H](CC)N(Cc1ccco1)C(=O)n1ccnc1 [(S)-(-)-pefurazoate]	100%	0.8%	60%	87%	78%	13.6%	> 40 µg/mL	0.24 µg/mL (≈ 0.695 µM)	100%	35%	100%						
C=CCCCOC(=O)C(CC)N(Cc1ccco1)C(=O)n1ccnc1 (racemic) [Pefurazoate]	75%		35%		58%		2.5 µg/mL (≈ 7.24 µM)	0.49 µg/mL (≈ 1.42 µM)	100%	20%	100%						
C=CCCCOC(=O)[C@@H](CC)N(Cc1ccco1)C(=O)n1ccnc1 [(R)-(+)-pefurazoate]	25%	3.2%				12.2%	1.25 µg/mL (≈ 3.62 µM)	7.35 µg/mL (≈ 21.3 µM)	38%		45%	1.3%	63%	14.2%	53%	73%	47%
